2 molecules from patent US11554373B2 (priority 2016, dated 2023) can be followed below.

A short description of data set [1]: HPLC/MS determination of amiodarone remaining in system medium. The format is in vitro ADME. To be noted: 24 hours post-dose.
Method: Drug addition to the 3-O and 4-O systems was performed on D3 post-assembly. On the day of addition, 3× concentrations of each drug in the serum-free, multi-organ system medium (MOSM) were prepared in advance. ⅓ of the media in each system was removed and replaced with an equal volume of the concentrated drug solution. This facilitated for rapid mixing and complete diffusion of the drugs in the systems without requiring a full media change. […] Lipopolysaccharide (LPS, Sigma-Aldrich, L2630) was dissolved in PBS 1× at a concentration of 1 μg/mL and interferon-γ (IFN-γ) (Sigma-Aldrich, 11040596001) was dissolved in DI water at a concentration of 100,000 units/mL. LPS and IFN-γ were administered as a single cocktail at final concentrations of 10 ng/mL and 100 units/mL, respectively.
Medium samples collected from the systems were spiked with a tamoxifen internal standard (10 nM final measured concentration) and combined with acetonitrile at a 1:3 ratio to extract proteins. The mixtures were then centrifuged at 100×G for 5 minutes and supernatants were collected and diluted 1 to 51 in the initial mobile phase. […] Quantification and qualification ions for tamoxifen were 372.2→72.1 (28 eV CE) and 372.2→44 (48 eV), respectively. […]
Data set [2] has as its system IPSC derived cardiomyocytes. The data set can be described thus: Cardiac contractile force on cantilevers in 3-O/4-O systems. The format is cell-based, human. The protocol:
(§1) A four-organ system (4-O) was developed to contain a liver compartment, recirculating THP-1 cells, and three separate bioMEMs devices to measure the cardiomyocytes' electrical and mechanical functionality, as well as the mechanical function of the skeletal muscle. Three organ systems (3-0) were also developed to serve as a monocyte-free control for the 4-O systems. […] Cardiac and skeletal muscle mechanical function was evaluated by seeding the cardiomyocytes and skeletal muscle onto their own respective custom arrays of microscale cantilevers. Contractile force of the cardiac and skeletal muscle was calculated from laser-based measurements of cantilever bending resulting from contractile muscle (Stancescu et al 2015). Cardiac electrical function was measured via a microelectrode array amplifier system by incorporating and patterning cardiomyocytes onto custom microelectrode arrays with chemical patterning to produce a defined conduction path along a series of surface embedded microelectrodes (Nataraj an et al 2011, Stancescu et al 2015). Electrical stimulation for skeletal muscle force was generated inside the system with housing-embedded electrodes for cantilevers. […]
(§2) Cardiac and skeletal muscle contractions were measured using a cantilever deflection system that has been described previously (McAleer, 2014; Oleaga, 2016; Oleaga, 2017; Pirozzi, 2013). […]

The test system of data set [3] is IPSC derived cardiomyocytes. In words: Cardiac conduction velocity on patterned cMEA in 3-O/4-O systems. Type of data set: cell-based, human. The protocol:
as §1
Custom patterned multielectrode arrays (cMEAs) were fabricated to simultaneously stimulate and record electrical activity of cardiomyocytes cultured on the surface (100 μm diameter electrodes, 1000 μm between electrodes). Before culturing, the surfaces were modified to promote cell adhesion in an unbroken “U” pattern that connected multiple electrodes, allowing conduction velocity of the cells to be recorded at different points (14 mm total path length). […]
Drug additions were performed on day 3 of the experiment, immediately after baseline recordings of spontaneous and stimulated cell activity were taken. Cell activity was recorded again 48 and 96 hours after drug exposure. […]

Data set [4] has as its system IPSC derived cardiomyocytes. In words: Cardiac spontaneous beat frequency in 3-O/4-O systems. Type of data set: cell-based, human. An excerpt: Custom patterned multielectrode arrays (cMEAs) were fabricated to simultaneously stimulate and record electrical activity of cardiomyocytes cultured on the surface (100 μm diameter electrodes, 1000 μm between electrodes). Before culturing, the surfaces were modified to promote cell adhesion in an unbroken “U” pattern that connected multiple electrodes, allowing conduction velocity of the cells to be recorded at different points (14 mm total path length). Patterned cMEAs were introduced to the housings during system assembly on day 0 of the experiment.
Printed circuit boards (PCBs) and flexible elastomeric connectors (zebra connectors, FUJIPOLY, 1 mm wide×18.2 mm long×9 mm tall) were incorporated into each system to create an interface between the cMEA and a commercially available 60 electrode amplifier (MEA1060, Multichannel-systems). This amplifier was used to both record spontaneous and stimulated electrical activity of the cardiomyocytes. A stimulus generator (STG 1002, Multichannel Systems) was used to stimulate the cells (800 mV rectangular pulse, 0.5 Hz to 3.0 Hz in 0.25 Hz increments). The multichannel systems software suite was used to control both the amplifier and stimulator, and was used to record action potentials.
Drug additions were performed on day 3 of the experiment, immediately after baseline recordings of spontaneous and stimulated cell activity were taken. Cell activity was recorded again 48 and 96 hours after drug exposure. Conduction velocity (CV), spontaneous beat frequency and minimum interspike interval (MIST) were extracted from the data using Clampfit (Axon Instruments).
Spontaneous beat frequency was obtained from spontaneous recordings of cardiac activity 20 seconds in length. For each recording, the frequency was calculated as the number of measured action potentials divided by the length of time between the first and last action potential during the recording interval. […]

A further data set deals with skeletal muscle myotubes. The data set can be described thus: Skeletal muscle force on cantilevers in 3-O/4-O systems. Type of data set: cell-based, human. To be noted: 50 uM; up to four days after dose, with or without THP-1. As for the experimental part: as §1, §2
Another data set relates to cardiac cells. The data set can be described thus: Endpoint viability (alamar blue) of cardiac chips. Type of data set: cell-based, human. The note with it: 50 uM; endpoint day 7. On the technique in general: Resazurin is reduced to fluorescent resorufin, in cell work by metabolically active cells.
In another data set the test system is skeletal muscle cells. The data set can be described thus: Endpoint viability (alamar blue) of skeletal muscle chips. Type of data set: cell-based, human. To be noted: 50 uM; endpoint day 7.
Another data set deals with CYP3A4 (Homo sapiens, UniProt P08684). In words: Liver cytochrome p450 activity, endpoint D7. Type of data set: cell-based. To be noted: 4-O systems, 50 uM amiodarone vs untreated controls. As for the experimental part:
(§3) Cytochrome p450 1A1 and 3A4 isoforms from the hepatic cultures were assessed with a luciferin based method in two reactions. Basal activities were compared to induced activities upon incubations with 10 nM TCDD (Sigma, 48599) and 20 μM Rifampicin (Sigma, R3501) for 48 h, prior to the analysis. At 7, 14, 21 and 28 DIV, cells were rinsed 3 times with 1×PBS and incubated with 1A1 specific substrate, Luciferin-CEE (120 μM) (Promega, V8752) in phenol red-free 1×DMEM (Thermo Fisher Scientific, A1443001) for 3 h at 37° C. The enzymatic product (D-Luciferin) of the first reaction was collected and stored at −80° C. until further analysis. […] Twenty minutes after incubation at room temperature in the dark, luminescence was measured using a Synergy HT plate reader with KC4 software. […] 3A4 samples were measured separately from 1A1 samples due to high differences in luminescence emission. Similarly, induced and uninduced samples were measured separately. Each plate was measured a minimum of 5 times to ensure the photomultiplier detector was stabilized, and the average of all readings was taken for the final RLU values. A regression line with the standards (0.5-500 nM diluted in 1×DMEM), subtracting intrinsic DMEM luminescence from values, was obtained for each analysis. […]

For a further data set, the target named is CYP2C9 (Homo sapiens, UniProt P11712). The data set can be described thus: Liver cytochrome p450 activity, endpoint D7. Type of data set: cell-based. The note with it: 4-O systems, 50 uM amiodarone vs untreated controls.
CYP2C9, sequence (P11712 whole entry): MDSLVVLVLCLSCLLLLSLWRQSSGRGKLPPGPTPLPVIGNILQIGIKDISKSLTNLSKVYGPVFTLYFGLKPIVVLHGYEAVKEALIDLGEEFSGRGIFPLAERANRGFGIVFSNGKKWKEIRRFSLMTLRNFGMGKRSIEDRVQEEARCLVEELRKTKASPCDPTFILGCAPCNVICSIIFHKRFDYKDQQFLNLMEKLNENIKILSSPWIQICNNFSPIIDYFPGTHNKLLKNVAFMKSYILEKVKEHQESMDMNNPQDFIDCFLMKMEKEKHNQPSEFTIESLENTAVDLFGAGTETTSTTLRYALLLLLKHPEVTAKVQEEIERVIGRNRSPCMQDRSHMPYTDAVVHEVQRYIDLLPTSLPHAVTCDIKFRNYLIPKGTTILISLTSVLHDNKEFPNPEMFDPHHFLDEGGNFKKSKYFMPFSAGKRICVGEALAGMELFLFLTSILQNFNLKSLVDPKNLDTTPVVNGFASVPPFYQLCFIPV
In a further data set the test system is CYP1A. The data set can be described thus: Liver cytochrome p450 activity, endpoint D7. Type of data set: cell-based, human. To be noted: 4-O systems, 50 uM amiodarone vs untreated controls. The protocol: as §3
Another data set concerns 3-O systems+THP-1 cells. The data set can be described thus: Cytokine release in multi-organ systems. To be noted: 50 uM amiodarone; 7-day time course. The format is cell-based, human.
Data set [5] relates to THP-1 cells. The data set can be described thus: THP-1 cell activation by flow cytometry (CCR5, CD11b, CD86). Type of data set: cell-based, human. Also on record: CD86 expression (printed C86): dose or concentration left out as unconfirmed. The protocol: THP-1 monocytes (ATCC, TIB-202) were cultured in T-75 flasks according to the protocol recommended by ATCC. […] THP-1 cells show a proclivity towards forming large aggregates of loosely joined cells. These clumps were broken down back into single cells through the addition of deoxyribonuclease 1 (DNase 1, dissolved in 0.85% NaCl in water) (Sigma-Aldrich, D4513) at a concentration of 0.1 mg/mL. When cells had reached their optimal density, they were harvested and pelleted via centrifugation at 150×g for 5 min, resuspended in multi-organ system medium (MOSM) and added to the systems at a physiologically relevant concentration of 250,000 cells/mL. THP-1 cell adhesion to the inside surfaces of the housings was minimized by passivating the inside surfaces with bovine serum albumin (BSA, 0.5 mg/mL dissolved in PBS). 10 uL of medium was removed from each system daily to determine the number of freely recirculating cells present. Initial THP-1 culture medium consisted of RPMI 1640 base medium (ThermoFisher, 11875135) with 10% fetal bovine serum (ThermoFisher, 16000044) and 1× GlutaMAX (ThermoFisher, 35050061).
On the technique in general: Flow cytometry measures light scatter and fluorescence of single cells or particles in a stream.

In the next data set the test system is cardiac tissue. In words: THP-1 cell infiltration into cardiac tissue (phase contrast, CellTracker Red). Type of data set: cell-based, human. To be noted: 4-O system dosed with amiodarone, after three days.
The test system of a further data set is liver tissue. In words: THP-1 infiltration into liver module by immunocytochemistry (CD11b, CD86). Type of data set: cell-based, human. The note with it: systems with recirculating THP macrophages, amiodarone, vs controls. As for the experimental part: At the end of each experiment, cardiac cMEAs and hepatocyte coverslips were fixed with 4% paraformaldehyde in 1×PBS for 5 minutes. Cells were rinsed twice with 1×PBS and Cells were permeabilized with a solution of 0.1% Triton X-100 in 1×PBS for 15 minutes then blocked with 5% donkey serum in 1×PBS for 20 minutes. Cells were then incubated overnight at 4° C. with primary antibody in blocking solution. Primary antibodies used were anti-CD14, anti-CD16, anti-CD69, anti-CD11b, anti-CD86, and anti-CCR5. Following three, five-minute washes with 1×PBS, cells were incubated for 2 hours at room temperature in the dark with a secondary antibody conjugated to Alexa-488 fluorophore, or Alexa-568 fluorophore. Following the secondary antibody incubation, surfaces were washed 3× in PBS and incubated with 3 mM 4′-6-Diamidino-2-Phenylindole (DAPI) in 1×PBS for 10 min, in the dark and at RT for nuclei staining. DAPI solution was removed and the cells were washed 3× with PBS. Finally, coverslips were mounted on glass slides using a Hard Set Mounting with DAPI (Vector laboratories, Inc.). Alternatively, MEAs were left in the final 1×PBS rinse and imaged using a water immersion lens.

Data set [6] concerns THP-1 cells. In words: Viability of THP-1 cells treated directly. The format is cell-based, human. The note with it: amiodarone treatment of THP-1 cells alone.
Setting [7] is: 50 uM acute, 4-O systems (with THP-1 cells).
Setting [8] is: 50 uM, 4-O systems, D4 after dose.
Where [9] appears, read: 50 uM, without THP-1, vs untreated 3-O systems.
[10] abbreviates: amiodarone treatment of THP-1 cells alone.
The mark [11] stands for this setting: recirculating THP-1 cells from 4-O & 4-O+Amiodarone systems, days 1, 3, 5, 7.
Setting [12] is: THP-1 culture dosed with 50 μM PMA (positive control).

Where a name gives a salt, the structure may show the parent alone.

CYP3A4, sequence (P08684 whole entry, canonical isoform): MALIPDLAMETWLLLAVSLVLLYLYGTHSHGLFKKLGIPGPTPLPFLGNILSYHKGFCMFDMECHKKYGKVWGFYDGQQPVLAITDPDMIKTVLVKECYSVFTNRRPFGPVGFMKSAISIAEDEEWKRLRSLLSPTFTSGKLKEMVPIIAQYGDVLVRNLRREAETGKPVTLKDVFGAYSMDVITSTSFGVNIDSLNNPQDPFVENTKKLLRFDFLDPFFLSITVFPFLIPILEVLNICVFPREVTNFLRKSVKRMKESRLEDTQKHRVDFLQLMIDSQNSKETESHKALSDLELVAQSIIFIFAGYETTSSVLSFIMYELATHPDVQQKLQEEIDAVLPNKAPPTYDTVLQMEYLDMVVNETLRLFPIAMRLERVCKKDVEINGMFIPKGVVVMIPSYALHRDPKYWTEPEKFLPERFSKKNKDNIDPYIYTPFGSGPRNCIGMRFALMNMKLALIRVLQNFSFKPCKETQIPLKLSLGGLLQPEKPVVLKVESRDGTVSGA
Method for cardiac cells: (§4) Cell viability was evaluated in one of three ways depending on the surface the cells were grown on. […] The viability of cardiac and skeletal muscle cells plated on BioMEMs devices was assessed using an alamar blue solution (Thermofisher, DAL1025). Surfaces were incubated in 500 μL of a 10% solution (v:v) of alamar blue in growth medium at 37° C., 5% CO2 for 24 hours. 100 μL of the solution was placed into a 96 well plate and read at fluorescence excitation wavelength 570 nm and emission at 590 nm using the BioTeK Synergy HT plate reader.
Method for cardiac tissue: THP-1 cells were collected in a 15 mL conical tube and centrifuged to a pellet at 300 g for 5 minutes. The cells were resuspended and counted and the volume adjusted to 1×10^6 cells/mL. Then cells were then incubated with Cell Tracker Red CMTPX Dye (ThermoFisher C34552) following the manufacturer's protocol. The dye loaded cells were then used for infiltration studies in 4-O systems as described.
Method for skeletal muscle cells: as §4

As for `CCCCc1oc2ccccc2c1C(=O)c1cc(I)c(OCCN(CC)CC)c(I)c1` [amiodarone, Amiodarone hydrochloride], in data set [1] (50 μM dose, 3-O systems+THP-1 cells), the “amiodarone mean concentration still present in the systems” value stood at 1.41 µM. Also, the “reduction of amiodarone in medium” value in data set [1] (from 50 μM) is 97%. Besides, the “decrease in cardiac force output” value in data set [2] (setting [7]) came out at 80%. In [2] (acute dose 50 uM, printed as 4-O systems treated vs untreated systems), the “decrease in cardiac force output” value is on record as 50%. Besides, the “decrease in cardiac conduction velocity” value in [3] (setting [7]) is reported as 50%. For the same molecule, the “conduction velocity at D4” value in [3] (setting [8]) is on record as “recovery”. In data set [3] (setting [9]), the “reduction of cardiac conduction velocity” value was found to be 20%. For the same molecule, the “decrease in cardiac beat frequency” value in data set [4] (setting [7]) is given as 60%. In addition, in data set [4] (setting [8]), the “beat frequency at D4” value is “recovery”. In addition, the “reduction of cardiac beat frequency” value in data set [4] (setting [9]) is 45%. Besides, in the data set with skeletal muscle myotubes, the “effect on skeletal muscle force” value is “no significant effect”. Moreover, the cardiac chip viability result in the data set with cardiac cells was “does not significantly reduce viability”. Also, in the data set with skeletal muscle cells, the “skeletal muscle chip viability” value is given as “does not significantly reduce viability”. Moreover, at CYP3A4, the CYP3A4 activity result is recorded as “significantly reduced”. Further, the CYP2C9 activity entry at CYP2C9 was “not affected”. Besides, the CYP1A activity result in the data set with CYP1A was “not affected”. In addition, in the data set with 3-O systems+THP-1 cells, the IL-6 level result is listed as “increased”, the IL-8 level entry is listed as “increased” and the MCP-1 level result is listed as “increased”. Besides, in the data set with THP-1 cells [5] (setting [10]), the CCR5 expression entry was “did not significantly alter”, the CD11b expression result was “did not significantly alter” and the CD86 expression entry is recorded as “did not significantly alter”. Besides, in the data set with THP-1 cells [5] (setting [11]), the CCR5 expression entry is listed as “largely stable”, the CD11b expression entry is listed as “increased” and the CD86 expression result is given as “largely stable”. Besides, the “THP-1 cell infiltration into cardiac tissue” value in the data set on cardiac tissue was “visibly infiltrated”. Further, the “CD11b and CD86 staining of liver cells (THP infiltration)” value in the data set with liver tissue is “increase”. In addition, the THP-1 cell viability entry in the data set with THP-1 cells [6] is listed as “did not significantly alter”.
`CCCCCCCCCCCCCC(=O)O[C@@H]1[C@@H](C)[C@@]2(O)[C@@H](C=C(CO)C[C@]3(O)C(=O)C(C)=C[C@@H]23)[C@@H]2C(C)(C)[C@]12OC(C)=O` [PMA, phorbol 12-myristate 13-acetate]: in the data set with THP-1 cells [5] (setting [12]), the “increase in CCR5 expression” value came out at 8% and the “increase in CD11b expression” value was 23%. In the data set on THP-1 cells [5] (THP-1 culture dosed with PMA (positive control)), the “CD86 expression (printed C86)” value is given as “relatively unchanged”.
